Consider 6 molecules from patent publication US20210333284A1, “METHODS AND MATERIALS FOR LARGE-SCALE ASSESSMENT OF LIGAND BINDING SELECTIVITY OF G-QUADRUPLEX RECOGNITION USING CUSTOM G4 MICROARRAYS” (Purdue Research Foundation, priority 2020, published 2021).

Data set [1] deals with G4 sequences on custom G4 microarray. Kind of data set: G4 microarray competition of unlabeled molecule with Cy5-PDS. The data set is classed as binding, human. The source says: Whether the microarray platform could be used to reveal the G4-binding specificity of unlabeled molecules via a competition with Cy5-PDS binding was explored. Three example molecules, unlabeled PDS, TMPyP4 (a planar molecule that nonspecifically binds G4 structures^14), and DC-34 (a molecule that selectively binds the MYC G4^15) were examined. […] The binding of unlabeled DC-34 was examined (FIG. 4). There appear to be no features that are better-bound in the presence of DC-34. […] This is consistent with the observation that DC-34 binds the top and bottom surfaces of the G4 and makes specific contacts with purines in the tail sequences.^15 The general properties of features in which DC-34 reduced binding of Cy5-PDS (ratio of PDS/PDS+DC-34) were also examined.
(§1) Microarrays were preincubated with a 100 mM potassium chloride solution for 1 h at RT to induce G4 formation. Protein binding microarray experiments were then performed as previously described.^23 Microarrays were blocked with 4% nonfat dry milk in a potassium phosphate buffer before incubation with proteins or small molecules. Expressed proteins were blocked with 4% nonfat dry milk, ssDNA, and BSA. For the validation experiments, microarrays were also treated with 100 mM lithium chloride to inhibit G4 formation. For experiments examining dsDNA, single-stranded DNA probes were made double-stranded using a primer complementary to a 24-mer constant sequence following the method described previously.^23,24 Double stranding efficiency was monitored using 4% Cy3-dCTP.
Protein or molecule-bound microarrays were scanned with the G5761A SureScan Dx Microarray Scanner System (Agilent) to detect a Cy5 signal at two laser settings (30 and 100 PMT) to ensure signal intensities were below saturation. Spot intensities from microarray images were extracted using the Agilent Feature Extraction Software and are reported as raw fluorescence units. All binding assays were performed at least twice, with high agreement between replicates (R>0.8). Microarrays with the fewest number of saturated spots were used for further analysis. […] The measured array data (Design 3, PDS) and predictions were normalized using the following
Custom G4 microarrays have been designed that contain a total of 19,249 G4 DNA sequences [31, the entirety of disclosure of which, including the supplemental information, is incorporated herein by reference]. […] After washing to remove the unbound Cy5-PDS and BMVC, the fluorescence intensities of Cy5-PDS bound to DNA oligonucleotides were detected using a fluorescence scanner. The binding selectivity of BMVC to different G4 structures was assessed by measuring the relative fluorescence intensity reduction of Cy5-PDS as BMVC concentration increased. […]

Data set [2] relates to genomic G4 sequences (folded G4 structures). In words: G4 microarray binding in potassium vs lithium. The arrangement: species or system human. Particulars: GST-tagged proteins. On the procedure:
The binding specificities of several molecules were evaluated. Microarrays were preincubated with 100 mM potassium chloride to induce G4 formation. Binding of each molecule is measured by detection of fluorescence intensity at each of the microarray features. BG4 and pyridostatin were conjugated with Cy5. Cellular proteins were expressed as chimeric proteins containing GST, and binding for these proteins was detected using an anti-GST antibody conjugated with Cy5 (Materials and Methods). G4 Structures Fold on DNA Microarrays. To evaluate the utility of DNA microarrays to examine G4-binding specificity, a Cy5-labeled pyridostatin (Cy5-PDS), a small molecule known to bind broadly to G4 structures, was synthesized.^13 A Cy5 conjugated version of BG4 (Cy5-BG4), an antibody developed to bind G4s, was also obtained.^31 FIG. 1A, B presents replicate binding intensities to 15,491 DNA sequences on the Design 3 microarray using either Cy5-PDS or Cy5-BG4. For Cy5-PDS, robust binding is observed at 1 μM, with fluorescence intensities ranging over 100-fold between strongest and weakest bound DNA features. The fluorescence-binding intensities of Cy5-PDS are proportional to the concentration of pyridostatin used). […] Antibody binding to non-G4 features increases with higher concentrations, and in some cases non-G4 sequences are more strongly bound by Cy5-BG4 than G4 sequences, including multiple cytosine-rich negative control sequences. Inhibition of G4 Formation Inhibits Cy5-PDS and Cy5-BG4 Binding. Cy5-PDS and Cy5-BG4 binding under conditions that inhibit G4 formation was examined to evaluate if G4 structures form on the microarray and are required for binding. […] It is noted that many sequences, in addition to the oncogene G4 sequences, are capable of forming G4s. […] For Cy5-BG4, the decrease in binding was up to 270-fold for genomic G4 sequences, while binding to negative controls decreased up to 23-fold (FIG. 1D,). In a second experiment, Cy5-PDS binding following a primer extension reaction that produces dsDNA^24 was examined (see Materials and Methods), anticipating that dsDNA would predominate over G4 formation^13. […] 2,27,28
as §1
Protein or molecule-bound microarrays were scanned with the G5761A SureScan Dx Microarray Scanner System (Agilent) to detect a Cy5 signal at two laser settings (30 and 100 PMT) to ensure signal intensities were below saturation. Spot intensities from microarray images were extracted using the Agilent Feature Extraction Software and are reported as raw fluorescence units. All binding assays were performed at least twice, with high agreement between replicates (R>0.8). Microarrays with the fewest number of saturated spots were used for further analysis. Median intensity was then computed for probes containing identical sequence on each microarray. […]

Data set [3] concerns human telomeric G4s. In words: G4 microarray direct binding to telomeric G4s. Particulars: GST-tagged helicases. On the procedure: as §1
Protein or molecule-bound microarrays were scanned with the G5761A SureScan Dx Microarray Scanner System (Agilent) to detect a Cy5 signal at two laser settings (30 and 100 PMT) to ensure signal intensities were below saturation. Spot intensities from microarray images were extracted using the Agilent Feature Extraction Software and are reported as raw fluorescence units. […] The measured array data (Design 3, PDS) and predictions were normalized using the following
DNA Microarray Binding Experiments DNA microarray experiments were performed and analyzed as described previously. […]

The test system of data set [4] is G4 sequences and non-G4 ssDNA controls on Design 3 microarray. In words: Custom G4 DNA microarray, direct binding by fluorescence intensity. The arrangement: species or system human. From the text: Three Agilent DNA microarrays (TABLE 1) were designed, each with four identical sectors that contain ca.177,440 ssDNA 60-mers to examine G4-binding specificity. Arrays were designed with 9-73 replicates of each unique sequence to ensure statistical significance (TABLE 1). Each microarray contains different sets of G4 variants designed to examine several sequence parameters that affect G4 formation and binding specificity such as loop length (Design 1), loop sequence (Design 2), tail sequence (Design 2), and single nucleotide variants of six known G4s (Design 3). All microarrays include a set of 19 sequences from human telomeres and oncogene promoters known to form G4s with various topologies as positive controls (TABLE 2). Designs 2 and 3 have a set of 295 additional G4-forming sequences from the literature.^30 For the loop length variants, the length of the tails and loops of four different MYC G4 sequences (MYC Pu27, MYC Pu18ntd, MYC Pu22, and MYC Pu22 NMR mutant) was increased up to five times their length. Loop and tail sequences were varied using A, T, G, and C polynucleotide stretches and a subset of combinations. For the loop sequence variants, 4,096 sequences of the form NGGGNGGGNNGGGNGGGN (SEQ ID NO: 2) and 64 variants of the form GGGNGGGNGGGNGGG (SEQ ID NO: 1) were generated. For the tail variants, 256 versions of the major MYC G4 with all possible dinucleotide tails ([…] (SEQ ID NO: 3)) were generated. […]
The binding specificities of several molecules were evaluated. […] Binding of each molecule is measured by detection of fluorescence intensity at each of the microarray features. […] Cellular proteins were expressed as chimeric proteins containing GST, and binding for these proteins was detected using an anti-GST antibody conjugated with Cy5 (Materials and Methods). […] For Cy5-PDS, robust binding is observed at 1 μM, with fluorescence intensities ranging over 100-fold between strongest and weakest bound DNA features. The fluorescence-binding intensities of Cy5-PDS are proportional to the concentration of pyridostatin used). […]

Turning to `NCCOc1cc(C(=O)Nc2cc(OCCN)c3ccccc3n2)nc(C(=O)Nc2cc(OCCN)c3ccccc3n2)c1` [pyridostatin], the “effect of unlabeled competitor on Cy5-PDS binding” value in data set [1] (1 μM Cy5-PDS, various concentrations of unlabeled competitor) is “no change in binding specificity”. In addition, the “binding selectivity profile to different G4 sequences” value in data set [1] (1 μM unlabeled ligand and 1 μM Cy5-PDS) is “bind less selectively”.

For the molecule “BLM: GST-tagged human Bloom's syndrome protein helicase”, the “effect of lithium chloride (inhibiting G4 formation) on protein binding” value in data set [2] was “weakened binding”. Also, in data set [3], the “binding to hTelomeric (hyb-2 G4) and hTelomeric1 (hyb-1 G4) sequences” value is given as “specifically binds the wt hTelomeric sequence that forms hyb-2 G4”.

As to “CNBP: GST-tagged human cellular nucleic acid binding protein”, the “effect of lithium chloride (inhibiting G4 formation) on protein binding” value in data set [2] is “does not inhibit DNA binding”.

As for “IGF2: GST-tagged human insulin-like growth factor II, full length ORF”, the “effect of lithium chloride (inhibiting G4 formation) on protein binding” value in data set [2] is listed as “weakened binding”. Besides, the “binding specificity, G4 vs non-G4 ssDNA sequences” value in data set [4] is reported as “bind only G4 sequences”.

As for “WRN: GST-tagged human Werner syndrome RecQ like helicase”, in data set [2], the “effect of lithium chloride (inhibiting G4 formation) on protein binding” value is listed as “weakened binding”. Further, in data set [3], the “binding to hTelomeric (hyb-2 G4) and hTelomeric1 (hyb-1 G4) sequences” value was “can bind both hTelomeric (hyb-2 G4) and hTelomeric1 (hyb-1 G4) sequences”.

B1: PIF1: GST-tagged human PIF1 helicase (protein, listed as Homo sapiens)
chain: MLSGIEAAAGEYEDSELRCRVAVEELSPGGQPRRRQALRTAELSLGRNERRELMLRLQAPGPAGRPRCFPLRAARLFTRFAEAGRSTLRLPAHDTPGAGAVQLLLSDCPPDRLRRFLRTLRLKLAAAPGPGPASARAQLLGPRPRDFVTISPVQPEERRLRAATRVPDTTLVKRPVEPQAGAEPSTEAPRWPLPVKRLSLPSTKPQLSEEQAAVLRAVLKGQSIFFTGSAGTGKSYLLKRILGSLPPTGTVATASTGVAACHIGGTTLHAFAGIGSGQAPLAQCVALAQRPGVRQGWLNCQRLVIDEISMVEADLFDKLEAVARAVRQQNKPFGGIQLIICGDFLQLPPVTKGSQPPRFCFQSKSWKRCVPVTLELTKVWRQADQTFISLLQAVRLGRCSDEVTRQLQATASHKVGRDGIVATRLCTHQDDVALTNERRLQELPGKVHRFEAMDSNPELASTLDAQCPVSQLLQLKLGAQVMLVKNLSVSRGLVNGARGVVVGFEAEGRGLPQVRFLCGVTEVIHADRWTVQATGGQLLSRQQLPLQLAWAMSIHKSQGMTLDCVEISLGRVFASGQAYVALSRARSLQGLRVLDFDPMAVRCDPRVLHFYATLRRGRSLSLESPDDDEAASDQENMDPIL
modifications: GST tag
notes: GST-tagged human PIF1 helicase
Consider B1, for which the “effect of lithium chloride (inhibiting G4 formation) on protein binding” value in data set [2] was “does not inhibit DNA binding”.
